Values of other authors in US20160367500A1 (FERTILIFY INC., priority 2013, published 2016).
Where two headings read alike, the source gives them in different places. Blank lines part the entries; values can stand above or below the compound they belong to.

What was measured:
[1] = tested on: mouse hepatocyte mitochondria
[2] = tested on: anti-Müllerian hormone (AMH); details: women with sufficient levels of vitamin D
[3] = not given; remark: listed apart in the source
[4] = tested on: female rats
[5] = tested on: methylglyoxal-treated oocytes
[6] = tested on: aged female mice
[7] = tested on: ROS-mediated embryo-toxicity in cultures; details: vitamin C and vitamin E together, ex-vivo murine models
[8] = fortification of food with folic acid
[9] = diet deficient in vitamin D versus vitamin D sufficient diet (Halloran 1980)

- upper limit (in words) (adults over the age of 18): (no known upper limit)
Compound: O=C(O)c1cc(C(=O)O)c2c(n1)C(=O)C(=O)c1cc(C(=O)O)[nH]c1-2 [PQQ, pyrroloquinoline quinone]
- mitochondrial biogenesis ([1]; aging cells): promotes the spontaneous generation of new mitochondria within aging cells
- protection from oxidative stress ([1]; mouse hepatocyte mitochondria): protects mouse hepatocyte mitochondria from oxidative stress

Compound: vitamin D
- AMH levels [2]: increased levels of anti-Müllerian hormone (AMH)
- pregnancy rate per IVF cycle ([3]; women whose vitamin D levels were insufficient or deficient): 34.7%
- pregnancy rate per IVF cycle ([3]; women with sufficient levels of vitamin D): 52.5%
- reduction of fertility [4, 9]: 75%
- reduction of litter size [4, 9]: 30%
- litter size ([4]; diet lacking vitamin D before mating versus diet containing vitamin D (Hickie 1983)): significantly smaller litters

Compound: Oc1ccc(C=Cc2cc(O)cc(O)c2)cc1 [Resveratrol, resveratrol]
- adverse effects caused by methylglyoxal (inhibition of oocyte maturation, disruption of spindle assembly) [5]: can alleviate the adverse effects caused by methylglyoxal
- excessive ROS production, aberrant mitochondrial distribution, high level lipid peroxidation ([5]; methylglyoxal-induced cytotoxic changes): can block these cytotoxic changes
- DNA double strands breaks ([5]; methylglyoxal-treated oocytes): decreased

Compound: COC1=C(OC)C(=O)C(C/C=C(\C)CC/C=C(\C)CC/C=C(\C)CC/C=C(\C)CC/C=C(\C)CC/C=C(\C)CC/C=C(\C)CC/C=C(\C)CC/C=C(\C)CCC=C(C)C)=C(C)C1=O [Coenzyme Q10, coenzyme Q10]
- litter size ([6]; 52-week-old mice, versus control groups without coenzyme Q10): significantly larger litter sizes
- number of ovulated eggs after stimulation ([6]; aged female mice): significantly increases the number of ovulated eggs
- safely tolerable dose (in vivo): up to 1200 mg per day

Compound: vitamin E
- tolerable upper limit of intake (Health Canada Nutrition Tables (2013)): 1000 mg per day
- IVF [7]: improved IVF
- rate of embryo development [7]: increased the rate of embryo development

Compound: Nc1nc2ncc(CNc3ccc(C(=O)N[C@@H](CCC(=O)O)C(=O)O)cc3)nc2c(=O)[nH]1 [Folic Acid, folic acid]
- rate of neural-tube defects [8]: significant reduction in the rate of neural-tube defects
